{"source": "paper PMC11247486", "about": "“Improving the In Vivo Stability of [^52Mn]Mn(II) Complexes with 18-Membered Macrocyclic Chelators for PET Imaging” (Journal of Medicinal Chemistry, 2024)", "key": {"[1]": {"assay": "Serum stability of the 52Mn radiocomplexes, human serum", "assay_type": "in vitro ADME", "conditions": "for intact complex / % activity of pellet / % activity of supernatant: 37 °C; for intact complex: 5 days", "procedure": "(§1) The ^52Mn radiocomplexes were incubated with human or mouse serum at 37 °C. 50 μL of the radiocomplexes in PBS was combined with 500 μL of serum in triplicate and incubated at 37 °C for over 5 days. At indicated time points, 50 μL of the reaction mixture was removed and proteins were precipitated by addition of 50 μL of methanol. The precipitated proteins were centrifuged before iTLC measurements were performed over a period of 5 days on the supernatant. All the radio-TLC chromatograms for evaluation of stabilities are available in the Supporting Information section as Figures S9–S12."}, "[2]": {"assay": "Ex vivo biodistribution after PET/CT", "assay_type": "in vivo, mice", "procedure": "(§2) [^52Mn]Mn-CHXPYAN and [^52Mn]Mn-PYAN radiocomplexes were evaluated in vivo through 90 min dynamic PET/CT imaging of heathy mice followed by an ex vivo biodistribution analysis. Similarly, [^52Mn]MnCl2 was also studied as a control.\n(§3) [^52Mn]Mn-CHXPYAN and [^52Mn]Mn-PYAN were synthesized with molar specific activities of 80 and 60 MBq/μmol, respectively. 1.04 ± 0.07 MBq (28 ± 2 μCi) of the radiocomplexes in 100 μL injection doses was prepared. The mice (n = 4 per group) were anesthetized with 2.5% isoflurane in oxygen and were injected via the retroorbital sinus. For comparison purposes, 1.04 ± 0.07 MBq (28 ± 2 μCi) of [^52Mn]MnCl2, pH 7 was also injected. After injection, mice were imaged on a Sofie GNEXT PET/CT scanner for a 90 min dynamic scan (9 frames of 10 min each) followed by a 3 min CT at 80 kVp for anatomical reference. PET images were reconstructed via 3D-OSEM (Ordered Subset Expectation Maximization) algorithm (24 subsets and 3 iterations), with random, attenuation, and decay correction, and CT was reconstructed with the modified Feldkamp algorithm and analyzed using VivoQuant 4.0 (Invicro Imaging Service and Software, Boston MA) software. After imaging, mice were euthanized, and organs were collected, weighed, and counted for associated radioactivity on an automated gamma counter. Radioactivity uptake was calculated as the percent injected dose per gram of tissue (% ID/g). Following the reconstruction of the images, ROIs (heart, liver, kidneys, muscle, and bone) were hand-drawn to determine the SUVs using the VivoQuant imaging software."}, "[3]": {"assay": "DTPA challenge of the radiocomplexes", "assay_type": "physicochemical", "conditions": "DTPA (5 equiv), 37 °C", "procedure": "(§4) Assessment of the stability and kinetic inertness of the radiocomplexes before in vivo evaluation was conducted to assess the possibilities of transchelation. In vitro stability assays including incubating the radiocomplexes with an excess (100 μM) of biologically relevant metal ions (Mg^2+, Zn^2+, Fe^2+, and Cu^2+), DTPA, and mouse and human serum were conducted.\n(§5) For metal challenge studies, a 10 molar excess of 100 μM of metal ions in chloride solutions including CuCl2, ZnCl2, FeCl2, and MgCl2 relative to ligand concentration was incubated with the radiocomplexes at 37 °C. A 5 molar excess of DTPA was also added to compete with ^52Mn in the radiocomplexes. Decomplexation was monitored by radio-iTLC over a period of 5 days."}, "[4]": {"assay": "Metal challenge of the radiocomplexes", "assay_type": "physicochemical", "procedure": "as §4, §5"}, "[5]": {"assay": "Serum stability of the 52Mn radiocomplexes, mouse serum", "assay_type": "in vitro ADME", "conditions": "for intact complex / % activity of pellet / % activity of supernatant: 37 °C; for intact complex: 5 days", "procedure": "as §1"}, "[6]": {"assay": "Dynamic PET/CT imaging, SUVmean analysis", "assay_type": "in vivo", "conditions": "healthy mice, 1.5 h postinjection", "procedure": "as §2\nRegions of interest (ROIs) were manually drawn using CT images to determine the standard uptake value (SUVmean) using VivoQuant imaging software.\nas §3"}, "[7]": {"conditions": "healthy mice, 1.5 h postinjection, mean ± SD, n = 4"}}}
{"smiles": "[52Mn+2].c1cc2nc(c1)CN[C@@H]1CCCC[C@H]1NCc1cccc(n1)CN[C@@H]1CCCC[C@H]1NC2", "note": "[[^52Mn]Mn-CHXPYAN]", "values": [{"measurement": "intact complex", "setting": "[1]", "value": "98.04 ± 0.18", "unit": "%"}, {"measurement": "% activity of pellet", "setting": "[1]; day 1, average", "value": 13.09, "unit": "%"}, {"measurement": "% activity of supernatant", "setting": "[1]; day 1, average", "value": 86.91, "unit": "%"}, {"measurement": "% activity of pellet", "setting": "[1]; day 2, average", "value": 12.54, "unit": "%"}, {"measurement": "% activity of supernatant", "setting": "[1]; day 2, average", "value": 87.45, "unit": "%"}, {"measurement": "% activity of pellet", "setting": "[1]; day 3, average", "value": 14.46, "unit": "%"}, {"measurement": "% activity of supernatant", "setting": "[1]; day 3, average", "value": 85.54, "unit": "%"}, {"measurement": "% activity of pellet", "setting": "[1]; day 4, average", "value": 10.33, "unit": "%"}, {"measurement": "% activity of supernatant", "setting": "[1]; day 4, average", "value": 89.66, "unit": "%"}, {"measurement": "% activity of pellet", "setting": "[1]; day 5, average", "value": 9.31, "unit": "%"}, {"measurement": "% activity of supernatant", "setting": "[1]; day 5, average", "value": 90.7, "unit": "%"}, {"measurement": "radioactivity associated with the protein pellet", "setting": "[1]; all time points", "value": "< 15", "unit": "%"}, {"measurement": "Biodistribution, Blood", "setting": "[2]; [7]", "value": "0.14 ± 0.01", "unit": "% ID/g"}, {"measurement": "Biodistribution, Brain", "setting": "[2]; [7]", "value": "0.03 ± 0.01", "unit": "% ID/g"}, {"measurement": "Biodistribution, Fat", "setting": "[2]; [7]", "value": "0.11 ± 0.13", "unit": "% ID/g"}, {"measurement": "Biodistribution, Femur", "setting": "[2]; [7]", "value": "0.09 ± 0.04", "unit": "% ID/g"}, {"measurement": "Biodistribution, Heart", "setting": "[2]; [7]", "value": "0.21 ± 0.01", "unit": "% ID/g"}, {"measurement": "Biodistribution, Kidney", "setting": "[2]; [7]", "value": "11.27 ± 1.11", "unit": "% ID/g"}, {"measurement": "Biodistribution, L. Intestine", "setting": "[2]; [7]", "value": "3.45 ± 1.44", "unit": "% ID/g"}, {"measurement": "Biodistribution, Liver", "setting": "[2]; [7]", "value": "1.72 ± 0.93", "unit": "% ID/g"}, {"measurement": "Biodistribution, Lungs", "setting": "[2]; [7]", "value": "0.26 ± 0.12", "unit": "% ID/g"}, {"measurement": "Biodistribution, Muscle", "setting": "[2]; [7]", "value": "0.02 ± 0.01", "unit": "% ID/g"}, {"measurement": "Biodistribution, Pancreas", "setting": "[2]; [7]", "value": "0.20 ± 0.09", "unit": "% ID/g"}, {"measurement": "Biodistribution, S. Intestine", "setting": "[2]; [7]", "value": "2.32 ± 0.83", "unit": "% ID/g"}, {"measurement": "Biodistribution, Skin", "setting": "[2]; [7]", "value": "0.08 ± 0.04", "unit": "% ID/g"}, {"measurement": "Biodistribution, Spleen", "setting": "[2]; [7]", "value": "0.22 ± 0.18", "unit": "% ID/g"}, {"measurement": "Biodistribution, Stomach", "setting": "[2]; [7]", "value": "0.08 ± 0.04", "unit": "% ID/g"}, {"measurement": "intact complex", "setting": "[3]; day 5", "value": "5.73 ± 0.25", "unit": "%"}, {"measurement": "intact complex", "setting": "[4]; 10 molar excess of Cu^2+, day 5", "value": "14.56 ± 1.09", "unit": "%"}, {"measurement": "intact complex", "setting": "[4]; 10 molar excess of Zn^2+, day 5", "value": "8.14 ± 1.76", "unit": "%"}, {"measurement": "intact complex", "setting": "[5]", "value": "96.31 ± 1.34", "unit": "%"}, {"measurement": "% activity of pellet", "setting": "[5]; day 1, average", "value": 10.33, "unit": "%"}, {"measurement": "% activity of supernatant", "setting": "[5]; day 1, average", "value": 89.66, "unit": "%"}, {"measurement": "% activity of pellet", "setting": "[5]; day 2, average", "value": 10.82, "unit": "%"}, {"measurement": "% activity of supernatant", "setting": "[5]; day 2, average", "value": 89.18, "unit": "%"}, {"measurement": "% activity of pellet", "setting": "[5]; day 3, average", "value": 12.07, "unit": "%"}, {"measurement": "% activity of supernatant", "setting": "[5]; day 3, average", "value": 87.93, "unit": "%"}, {"measurement": "% activity of pellet", "setting": "[5]; day 4, average", "value": 14.33, "unit": "%"}, {"measurement": "% activity of supernatant", "setting": "[5]; day 4, average", "value": 85.66, "unit": "%"}, {"measurement": "% activity of pellet", "setting": "[5]; day 5, average", "value": 12.14, "unit": "%"}, {"measurement": "% activity of supernatant", "setting": "[5]; day 5, average", "value": 87.67, "unit": "%"}, {"measurement": "radioactivity associated with the protein pellet", "setting": "[5]; all time points", "value": "< 15", "unit": "%"}, {"measurement": "SUVmean, kidneys", "setting": "[6]", "value": "0.20 ± 0.03"}, {"measurement": "SUVmean, liver", "setting": "[6]", "value": "0.10 ± 0.02"}]}
{"smiles": "[52Mn+2].c1cc2nc(c1)CNCCNCc1cccc(n1)CNCCNC2", "note": "[[^52Mn]Mn-PYAN]", "values": [{"measurement": "intact complex", "setting": "[1]", "value": "92.78 ± 1.22", "unit": "%"}, {"measurement": "Biodistribution, Blood", "setting": "[2]; [7]", "value": "0.70 ± 0.20", "unit": "% ID/g"}, {"measurement": "Biodistribution, Brain", "setting": "[2]; [7]", "value": "0.45 ± 0.09", "unit": "% ID/g"}, {"measurement": "Biodistribution, Fat", "setting": "[2]; [7]", "value": "1.03 ± 0.50", "unit": "% ID/g"}, {"measurement": "Biodistribution, Femur", "setting": "[2]; [7]", "value": "0.80 ± 0.30", "unit": "% ID/g"}, {"measurement": "Biodistribution, Heart", "setting": "[2]; [7]", "value": "1.85 ± 0.71", "unit": "% ID/g"}, {"measurement": "Biodistribution, Kidney", "setting": "[2]; [7]", "value": 63.34, "unit": "% ID/g"}, {"measurement": "Biodistribution, Liver", "setting": "[2]; [7]", "value": "30.39 ± 11.46", "unit": "% ID/g"}, {"measurement": "Biodistribution, Lungs", "setting": "[2]; [7]", "value": "1.28 ± 0.51", "unit": "% ID/g"}, {"measurement": "Biodistribution, Muscle", "setting": "[2]; [7]", "value": "0.18 ± 0.05", "unit": "% ID/g"}, {"measurement": "Biodistribution, Pancreas", "setting": "[2]; [7]", "value": "2.41 ± 1.60", "unit": "% ID/g"}, {"measurement": "Biodistribution, Skin", "setting": "[2]; [7]", "value": "0.32 ± 0.18", "unit": "% ID/g"}, {"measurement": "Biodistribution, Spleen", "setting": "[2]; [7]", "value": "1.33 ± 0.93", "unit": "% ID/g"}, {"measurement": "Biodistribution, Stomach", "setting": "[2]; [7]", "value": "1.29 ± 0.53", "unit": "% ID/g"}, {"measurement": "Biodistribution, L. Intestine", "setting": "[2]; mouse, in vivo, 1.5 h", "value": "2.69 ± 0.82", "unit": "% ID/g"}, {"measurement": "Biodistribution, S. Intestine", "setting": "[2]; mouse, in vivo, 1.5 h", "value": "13.00 ± 2.35", "unit": "% ID/g"}, {"measurement": "intact complex", "setting": "[3]; day 1", "value": "2.32 ± 0.66", "unit": "%"}, {"measurement": "intact complex", "setting": "[4]; 10 molar excess of Cu^2+, day 1", "value": "< 4", "unit": "%"}, {"measurement": "intact complex", "setting": "[4]; 10 molar excess of Zn^2+, day 1", "value": "< 4", "unit": "%"}, {"measurement": "intact complex", "setting": "[5]", "value": "90.67 ± 1.12", "unit": "%"}, {"measurement": "SUVmean, kidneys", "setting": "[6]", "value": "1.70 ± 0.26"}, {"measurement": "SUVmean, liver", "setting": "[6]", "value": "0.77 ± 0.14"}]}
